# Experimental data reported in patent publication EP4534086A1, “TREATMENT OF LEUKODYSTROPHY” (priority 2023, dated 2025).
# Assays:
# [1] = tested on: Vimentin, Iba1 and IL-6 / MBP and MOG; assay: Gene-expression signature from RT-qPCR of cerebellum (inflammation/myelin ratio); format: in vivo, mice; conditions: donepezil vs vehicle
# Procedure: Total RNAs were isolated from cerebellum tissues using the Nucleospin® total RNA isolation kit (Macherey-Nagel, Germany). The concentrations of isolated RNA from each sample were assessed using a NanoDrop 2000 Spectrophotometer (Thermo Scientific, USA). 10 µL of the isolated RNA were equalized to 20 microlitres (µL) using RNase-free water. Then, the cDNA was synthesized by reverse transcription using the High-Capacity cDNA manufacture kit (Applied Biosystems™, Thermo Fisher Scientific, USA). Equal volumes of the isolated RNA and cDNA mastermix were mixed, centrifuged, and loaded in the thermal cycler (T100™, BIO-RAD, USA). The cDNA was diluted 1:2 with RNase-free water and stored at -20 deg.°C prior to qPCR analysis. The manufactured cDNA was amplified using multi-target qPCR. cDNA and PCR mastermix, containing the target and endogenous primers, as well as the Taqman mastermix, were loaded on a 96-well PCR fast plate (Thermo Fisher Scientific, USA) in an ice block. […] Gene expression data were analyzed using the Livak and Schmittgen (2001) ΔΔCt method, to produce a relative quantity (RQ) value of target gene expression relative to GAPDH expression as per formula in equations 1-3: (1) ΔCt=Ct target- Ct endogenous; (2) ΔΔCt= ΔCt sample- ΔCt control sample; (3) RQ=2-ΔΔCt.
# Data normality was assessed using the Shapiro-Wilk test. […]
# Sig-1R = biological target: T1, Sig-1R (Rattus norvegicus, UniProt Q9R0C9); conditions: rats; cited from earlier work
# T1 construct: host or cells: living rats
# T1 sequence (Q9R0C9 whole entry): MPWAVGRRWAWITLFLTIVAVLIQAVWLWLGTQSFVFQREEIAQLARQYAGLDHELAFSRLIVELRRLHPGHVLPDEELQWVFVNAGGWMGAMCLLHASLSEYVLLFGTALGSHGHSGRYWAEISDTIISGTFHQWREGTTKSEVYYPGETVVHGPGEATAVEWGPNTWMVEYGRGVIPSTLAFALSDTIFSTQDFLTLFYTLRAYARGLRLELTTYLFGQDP
smiles,measurement,setting,value
"COc1cc2c(cc1OC)C(=O)C(CC1CCN(Cc3ccccc3)CC1)C2 (racemic) [donepezil, (RS)-2-[(1-Benzyl-4-piperidyl)methyl]-5,6-dimethoxy-2,3-dihydroinden-1-one]","gene-expression-signature (Vimentin, Iba1 and IL-6 divided by MBP and MOG)","[1]; twitcher mice, p=0.0016",significant decrease
same,"gene-expression-signature (Vimentin, Iba1 and IL-6 divided by MBP and MOG)","[1]; wild-type mice, p=0.2495",no significant difference
same,dose corresponding to EC50 for receptor occupancy,Sig-1R,1.07 mg/kg
